# ChEMBL document CHEMBL1140392, “Cyclohexenyl- and dehydropiperidinyl-alkynyl pyridines as potent metabotropic glutamate subtype 5 (mGlu5) receptor antagonists” (Bioorg Med Chem Lett, 2005)
# Columns and labels:
# Type in all cases: ADME, organism-based
# [1] = Half life upon i.v. administration at the dose of 2 mg/kg in rat; set-up: dose 2 mg/kg, route intravenous; details: in vivo, iv
# [2] = Volume distribution upon i.v. administration at the dose of 2 mg/kg in rat; set-up: dose 2 mg/kg, route intravenous; details: in vivo, iv
# [3] = Clearance upon i.v. administration at the dose of 2 mg/kg in rat; set-up: dose 2 mg/kg, route intravenous; details: in vivo, iv
# [4] = Peak plasma concentration in rats when administered 10 mg/kg orally; set-up: dose 10 mg/kg, route oral; details: rat, po
# [5] = Bioavailability in rats when administered 10 mg/kg orally; details: rat, in vivo, po, read-out: Bioavailabiility
SMILES,T1/2 [1] [h],Vd [2] [L/kg],Cl [3] [mL/min/kg],half-life [1] [h],Cmax [4] [nM],Vd ([2]; read-out: Vd) [L/kg],bioavailability [5] [%],clearance [3] [mL/min/kg]
Cc1ccc(S(=O)(=O)N2CC=C(C#Cc3ccccn3)CC2)cc1,1.5,14.7,29,,,,,
O=S(=O)(c1ccc(Br)cc1)N1CC=C(C#Cc2ccccn2)CC1,,,,1.1,20,3.98,10,64
C(#Cc1ccccn1)C1=CC(Oc2cccnc2)CCC1 (stereo not drawn),,,,0.3,,2.2,,94
C(#Cc1ccccn1)C1=CCC(Nc2cccnc2)CC1 (stereo not drawn),,,,0.5,,1.4,,34
C(#Cc1ccccn1)C1=CCCCC1,,,,3.9,,9.1,,45
C(#Cc1ccccn1)C1=CC(Oc2ccncc2)CCC1 (stereo not drawn),,,,0.8,,1.2,,41
Clc1cncc(OC2C=C(C#Cc3ccccn3)CCC2)c1 (stereo not drawn),,,,4.8,,7.2,,32
